A compilation of properties of binary mixtures (doi:10.1007/s10953-020-00968-2)

Test: xn = mol fraction of the nth substance listed
Details: 101 kPa

O + CS(=O)(=O)[O-].C[N+](C)(CCO)CCO
x2 = 0
Details | viscosity [mPa·s]
298.15 K | 0.877
303.15 K | 0.789
313.15 K | 0.654

CS(=O)(=O)[O-].C[N+](C)(CCO)CCO + O
viscosity [mPa·s]
Details | x1 = 0.0989 | x1 = 0.1991 | x1 = 0.2989 | x1 = 0.3971 | x1 = 0.4797 | x1 = 0.5983 | x1 = 0.6984 | x1 = 0.7942 | x1 = 0.8928 | x1 = 1
298.15 K | 4.55 | – | 36.9 | 77.5 | 148 | 288 | 460 | 796 | 1034 | 1495
303.15 K | 3.91 | 12.42 | – | 60.6 | 113 | 212 | – | 558 | 718 | 1021
308.15 K | 3.45 | 10.56 | 24.6 | 48.3 | 78.7 | 160 | 246 | 403 | 510 | 716
313.15 K | 3.06 | 9.06 | 20.5 | 39 | – | 123.5 | – | 296 | 374 | 513
318.15 K | 2.74 | 7.85 | – | 32.1 | – | 86.9 | 142.8 | 223 | 279 | –
323.15 K | 2.51 | – | 14.75 | 26.7 | – | 69.4 | – | 171 | 212 | –
